According to ChEMBL document CHEMBL1154382, “Preliminary SAR analysis of novel antiproliferative N(6),5'-bis-ureidoadenosine derivatives” (2009):
Activity calls are given as the source filed them.

Assays:
Type in all cases: functional
HOP-62 = assay: Antiproliferative activity against human HOP62 cells at 10 uM assessed as cell growth inhibition relative to control
SN12C = assay: Antiproliferative activity against human SN12C cells at 10 uM assessed as cell growth inhibition relative to control
MCF7 = assay: Antiproliferative activity against human MCF7 cells at 10 uM assessed as cell growth inhibition relative to control
OVCAR-8 = assay: Antiproliferative activity against human OVCAR8 cells at 10 uM assessed as cell growth inhibition relative to control
LOX IMVI = assay: Antiproliferative activity against human LOXIMVI cells at 10 uM assessed as cell growth inhibition relative to control
BT-549 = assay: Antiproliferative activity against human BT549 cells at 10 uM assessed as cell growth inhibition relative to control
PC-3 = assay: Antiproliferative activity against human PC3 cells at 10 uM assessed as cell growth inhibition relative to control
SK-MEL-2 = assay: Antiproliferative activity against human SK-MEL-2 cells at 10 uM assessed as cell growth inhibition relative to control
SF-539 = assay: Antiproliferative activity against human SF539 cells at 10 uM assessed as cell growth inhibition relative to control
SK-MEL-28 = assay: Antiproliferative activity against human SK-MEL-28 cells at 10 uM assessed as cell growth inhibition relative to control
RXF 393 = assay: Antiproliferative activity against human RXF393 cells at 10 uM assessed as cell growth inhibition relative to control
CAKI-1 = assay: Antiproliferative activity against human Caki1 cells at 10 uM assessed as cell growth inhibition relative to control
HCT-15 = assay: Antiproliferative activity against human HCT15 cells at 10 uM assessed as cell growth inhibition relative to control
OVCAR-4 = assay: Antiproliferative activity against human OVCAR4 cells at 10 uM assessed as cell growth inhibition relative to control
SF-268 = assay: Antiproliferative activity against human SF268 cells at 10 uM assessed as cell growth inhibition relative to control
UO-31 = assay: Antiproliferative activity against human UO31 cells at 10 uM assessed as cell growth inhibition relative to control
HT-29 = assay: Antiproliferative activity against human HT-29 cells at 10 uM assessed as cell growth inhibition relative to control
A549 = assay: Antiproliferative activity against human A549 cells at 10 uM assessed as cell growth inhibition relative to control
K562 = assay: Antiproliferative activity against human K562 cells at 10 uM assessed as cell growth inhibition relative to control
HCC 2998 = assay: Antiproliferative activity against human HCC2998 cells at 10 uM assessed as cell growth inhibition relative to control
SNB-75 = assay: Antiproliferative activity against human SNB75 cells at 10 uM assessed as cell growth inhibition relative to control
COLO 205 = assay: Antiproliferative activity against human COLO205 cells at 10 uM assessed as cell growth inhibition relative to control
CCRF-CEM = assay: Antiproliferative activity against human CCRF-CEM cells at 10 uM assessed as cell growth inhibition relative to control
EKVX = assay: Antiproliferative activity against human EKVX cells at 10 uM assessed as cell growth inhibition relative to control
HCT-116 = assay: Antiproliferative activity against human HCT116 cells at 10 uM assessed as cell growth inhibition relative to control
TK-10 = assay: Antiproliferative activity against human TK10 cells at 10 uM assessed as cell growth inhibition relative to control
A498 = assay: Antiproliferative activity against human A498 cells at 10 uM assessed as cell growth inhibition relative to control
SW-620 = assay: Antiproliferative activity against human SW620 cells at 10 uM assessed as cell growth inhibition relative to control
UACC-257 = assay: Antiproliferative activity against human UACC257 cells at 10 uM assessed as cell growth inhibition relative to control
MDA-MB-468 = assay: Antiproliferative activity against human MDA-MB-468 cells at 10 uM assessed as cell growth inhibition relative to control
RPMI8266 = assay: Antiproliferative activity against human […] cells at 10 uM assessed as cell growth inhibition relative to control
NCI-H460 = assay: Antiproliferative activity against human NCI-H460 cells at 10 uM assessed as cell growth inhibition relative to control
MDA-MB-231 = assay: Antiproliferative activity against human MDA-MB-231 cells at 10 uM assessed as cell growth inhibition relative to control
Malme-3M = assay: Antiproliferative activity against human MALME-3M cells at 10 uM assessed as cell growth inhibition relative to control
NCI-H322M = assay: Antiproliferative activity against human NCI-H322M cells at 10 uM assessed as cell growth inhibition relative to control
OVCAR-5 = assay: Antiproliferative activity against human OVCAR5 cells at 10 uM assessed as cell growth inhibition relative to control
SNB-19 = assay: Antiproliferative activity against human SNB19 cells at 10 uM assessed as cell growth inhibition relative to control
NCI-H226 = assay: Antiproliferative activity against human NCI-H226 cells at 10 uM assessed as cell growth inhibition relative to control
OVCAR-3 = assay: Antiproliferative activity against human OVCAR-3 cells at 10 uM assessed as cell growth inhibition relative to control
T47D = assay: Antiproliferative activity against human T47D cells at 10 uM assessed as cell growth inhibition relative to control
SK-MEL-5 = assay: Antiproliferative activity against human SK-MEL-5 cells at 10 uM assessed as cell growth inhibition relative to control
DU-145 = assay: Antiproliferative activity against human DU145 cells at 10 uM assessed as cell growth inhibition relative to control
Hs-578T = assay: Antiproliferative activity against human Hs 578T cells at 10 uM assessed as cell growth inhibition relative to control
KM12 = assay: Antiproliferative activity against human KM12 cells at 10 uM assessed as cell growth inhibition relative to control
HL-60(TB) = assay: Antiproliferative activity against human HL-60(TB) cells at 10 uM assessed as cell growth inhibition relative to control
786-0 = assay: Antiproliferative activity against human 786-0 cells at 10 uM assessed as cell growth inhibition relative to control
ACHN = assay: Antiproliferative activity against human ACHN cells at 10 uM assessed as cell growth inhibition relative to control
M14 = assay: Antiproliferative activity against human M14 cells at 10 uM assessed as cell growth inhibition relative to control
SK-OV-3 = assay: Antiproliferative activity against human SKOV3 cells at 10 uM assessed as cell growth inhibition relative to control
NCI-H522 = assay: Antiproliferative activity against human NCI-H522 cells at 10 uM assessed as cell growth inhibition relative to control
NCI-H23 = assay: Antiproliferative activity against human NCI-H23 cells at 10 uM assessed as cell growth inhibition relative to control
UACC-62 = assay: Antiproliferative activity against human UACC62 cells at 10 uM assessed as cell growth inhibition relative to control
HOP-92 = assay: Antiproliferative activity against human HOP92 cells at 10 uM assessed as cell growth inhibition relative to control
SF-295 = assay: Antiproliferative activity against human SF295 cells at 10 uM assessed as cell growth inhibition relative to control
IGROV-1 = assay: Antiproliferative activity against human IGROV1 cells at 10 uM assessed as cell growth inhibition relative to control
U-251 = assay: Antiproliferative activity against human U251 cells at 10 uM assessed as cell growth inhibition relative to control
MOLT-4 = assay: Antiproliferative activity against human MOLT4 cells at 10 uM assessed as cell growth inhibition relative to control

Measured: growth inhibition (GI)

CNC(=O)NC[C@H]1O[C@@H](n2cnc3c(NC(=O)Nc4ccccc4)ncnc32)[C@@H]2OC(C)(C)O[C@@H]21
inactive: all assays above

CNC(=O)NC[C@H]1O[C@@H](n2cnc3c(NC(=O)Nc4ccccc4)ncnc32)[C@H](O)[C@@H]1O
inactive: all assays above
